Data taken from patent publication US9364514B2, “Anti-tumor adjuvant therapy” (Universite Pierre et Marie Curie (Paris 6), priority 2011, dated 2016).

Key:
[1] = system: mouse breast tumors from transgenic polyoma Middle-T mice (PyMT model); experiment: Therapeutic assay in nude mice bearing xenografted mouse breast tumors (PyMT model); format: in vivo; conditions: 5 mg/kg i.p. daily
Description: (§1) The primary human xenografts were obtained as previously described (Marangoni et al., 2007). Mouse breast cancer tumors were obtained using the transgenic Polyoma Middle-T Mouse PyMT model. Spontaneously growing mammary tumors occurring in transgenic mice were xenografted into nude immunodeficient mice to allow pharmacological assessments, and maintained from nude mouse to nude mouse serially passages.
(§2) For therapeutic experimental assays, 5- to 8-week old Swiss nu/nu female mice received a subcutaneous graft of tumor fragments with a volume of approximately 15 mm3. Tumors developed at the graft site 2 to 6 weeks later. Mice bearing growing tumors with a volume of 40 to 200 mm^3 were individually identified and randomly assigned to the control or treatment groups (10 animals in each group) and treatments were started on day 1. Mice were weighed twice a week. Tumour-bearing mice were sacrificed when the tumor volume reached 2500 mm^3, defined as the ethical limit. Tumor volumes and antitumor activity were evaluated as previously reported (Nemati et al. 2009. Anti Cancer Drugs 20, pages 932-940).
The anti-tumoral effect of the mouse peptide DPT-C9 was analyzed in nude mice bearing xenograft mouse breast tumors obtained from the transgenic polyoma Middle-T mice. […]

breast cancer model BC52 = experiment: Therapeutic assay in mice bearing primary human breast cancer xenograft BC52; format: in vivo, Swiss nu/nu female mice
Description: as §1, §2
(§3) DPT-C9h peptide diluted in water/glucose (1 to 25 mg/kg) was given by intraperitoneally route 5 to 7 days per week, according to the models and the therapeutic schedules. Doxorubicin (Teva Pharmaceuticals) and cyclophosphamide (Baxter) were diluted in 0.9% NaCl and administered intraperitoneally at a dose of 2 mg/kg and 100 mg/kg at day 1, respectively.
(§4) The anti-tumoral effect of DPT-C9h was tested in mice bearing breast cancer model BC52 and BC146. DPT-C9h was intraperitoneally administered at 5 mg/kg once daily for 5 weeks.

[2] = system: BC146 human breast cancer model; experiment: Therapeutic assay in mice bearing primary human breast cancer xenograft BC146; format: in vivo, Swiss nu/nu female mice
Description: as §1, §2, §3, §4
The inventors have further tested combined administration of DPT-C9h with doxorubicin and cyclophosphamid chemotherapy. The administration was either simultaneous or sequential: DPT-C9h was then administered at day 20, a stage corresponding to a chemotherapy-induced complete remission.

[3] = system: MDA MB231 breast cancer cell line; experiment: Detection of apoptosis by Annexin-V-FITC staining; format: cell-based
Procedure: (§5) MDA MB231 breast cancer cell line was cultured in DMEM medium supplemented with 10% of FCS.
Apoptotic cells were detected using Annexin-V (-FITC from BD biosciences) as described by the manufacturer. Briefly, the cells were washed in 1× binding buffer, centrifuged and then resuspended in 200 μl of 1× binding buffer containing Annexin V-FITC (0.1 μg/ml) and PI (0.5 μg/ml). After incubation at room temperature in the dark for 10 min, cells were analyzed by flow cytometry. Data acquired by FACSCalibur (BD biosciences) were analyzed with Cellquest Pro software.

[4] = system: MDA MB231 breast cancer cell line; experiment: Cytotoxicity assay (MTT); format: cell-based; conditions: 61 h
Procedure: as §5
The cytotoxicity of chemotherapy and the peptide was assessed by MTT. […] Cells were rinsed with culture medium and incubated with 10 μl MTT (5 mg/ml) in a final volume of 100 μl for 4 h at 37° C. The formation of blue formazan crystals was visualized by microscopy. After this period of incubation, 100 μl of 10% SDS in 10 mM HCl was added to each well and the plate incubated overnight. The absorbance was measured at 570 and 620 nm and the percentage of viable cells to untreated controls was estimated.

[5] = BC52 model, Treatment (Chemo.) = Ovariectomy, DPT-C9h 5 mg/kg i.p. once daily for 5 weeks
[6] = BC146 model, Chemo. = Doxorubicin + cyclophosphamid, DPT-C9h 5 mg/kg i.p.

Row | Substance | tumor growth inhibition [1] | tumor growth inhibition (breast cancer model BC52; BC52, 5 mg/kg i.p. once daily for 5 weeks, end of treatment) | OS: Overall survival (breast cancer model BC52; [5]) | RTV: Relative tumor volume (breast cancer model BC52; [5]) | tumor growth inhibition ([2]; BC146, 5 mg/kg i.p. once daily for 5 weeks, end of treatment) | OS: Overall survival [2, 6] | RTV: Relative tumor volume [2, 6] | tumor relapse ([2]; DPT-C9h combined with doxorubicin and cyclophosphamid, simultaneous or sequential (from day 20), versus chemotherapy alone) | CR: Complete remission ([2]; Treatment (Chemo.) = Doxorubicin 2 mg/kg + cyclophosphamid 100 mg/kg i.p. day 1, DPT-C9h simultaneous or from day 20) | apoptosis (annexin staining), combination effect ([3]; 5FU 10 μM 24 h, then 25 or 50 μM DPT-C9h for 24 further h) | apoptosis (annexin staining), combination effect ([3]; cisplatin 10 μM 24 h, then increasing doses of DPT-C9h for 24 further h) | apoptosis (annexin staining), combination effect ([3]; different doses of DPT-C9h + doxorubicin 0.25 μM, 24 h) | apoptosis (annexin staining), combination effect ([3]; docetaxel 0.5 μM + 10 and 25 μM DPT-C9h, 24 h) | cell survival (MTT) ([4]; different doses of 5FU + DPT-C9h 10 μM) | cell survival (MTT) ([4]; different doses of cisplatin + DPT-C9h 10 μM) | cell survival (MTT) ([4]; different doses of docetaxel + DPT-C9h 10 μM, versus docetaxel only)
1 | VKKKKIKREIKI-YIETLDDILEQWARSEDL (VKKKKIKREIKIYIETLDDILEQWARSEDL; cell penetrating peptide) [DPT-C9] | significant tumor growth inhibition |  |  |  |  |  |  |  |  |  |  |  |  |  |  | 
2 | VKKKKIKREIKI-YVETLDDIFEQWAHSEDL (VKKKKIKREIKIYVETLDDIFEQWAHSEDL; cell penetrating peptide) [DPT-C9h] |  | significant tumor growth inhibition | 33% | 0.70 | significant tumor growth inhibition | 27% | 20.2 | delayed tumor relapse better than chemotherapy alone | 0% | synergistic apoptotic effect | synergistic apoptotic effect | synergistic effect on apoptosis | synergistic apoptotic effect | low cell survival | low level of cell survival | low survival
